Bridge positions count the residues as written; N and C are the ends. Peptide text beside a SMILES is read from it.

Data set [1] can be described thus: Enzymatic stability against trypsin. It counts as in vitro ADME. To be noted: isolated enzyme trypsin; endopeptidase trypsin, up to 6 hr, 37 °C, 100 mM ammonium bicarbonate pH 7.8; 28 µg peptide; quenched with 1 M HCl; UPLC peak area with MALDI-TOF MS; read-out: peptide remaining after trypsin. As to the method: The β-ginkgotide β-gB1 (28 µg) was added to 100 µL of 100 mM ammonium bicarbonate buffer (pH 7.8) and incubated in a water bath at 37 °C for 6 hr. At each time-point (0 and 6 hr), 20 µL of the treated sample was aliquoted and quenched by adding 5 µL of 1 M hydrochloric acid.
The reaction mixture was analyzed by a Nexera UHPLC system (Shimadzu, Kyoto, Japan) equipped with an Aeris peptide XB-C18 column (Phenomenex, CA, USA; particle size 3.6 µm, 100 × 4.6 mm). The eluents were monitored with MALDI-TOF MS, and the area under the peak before and after the treatment was determined to evaluate stability.
Figure S5. Stability assays of β-gB1. (A) Thermal stability of β-gB1 incubated at 100 °C for 120 minutes. (B) Acidic condition stability of […] incubated in 0.2 M HCl (pH 2.0) at 37 °C for 120 minutes. […] The molecular weight of the peak was determined by MALDI-TOF MS.

The subject of data set [2] is erythrocytes obtained from human type O blood. Put plainly: Hemolytic effect on erythrocytes. It counts as cell-based. To be noted: human type O erythrocytes in PBS; concentrations up to 100 µM; 4 hr, 37 °C; read at 415 nm. On the procedure: Erythrocytes were isolated from fresh blood type O+ by centrifugation for 15 min at 10000 rpm. The erythrocytes were diluted with phosphate-buffered saline, mixed with various concentrations of β-ginkgotide β-gB1 (1–100 µM) and incubated for 4 hr at 37 °C. The hemolytic effect was examined using a microplate reader set at 415 nm^3.

A further data set has as its system BHK cell line. Briefly: In vitro cytotoxicity (MTT), BHK cells. It counts as cell-based. To be noted: concentrations up to 100 µM, 24 hr.
A short description of data set [3]: Enzymatic stability against carboxypeptidase A. It counts as in vitro ADME. To be noted: isolated enzyme carboxypeptidase; exopeptidase carboxypeptidase A (method prints 100 nM carboxypeptidase B), up to 6 hr, 37 °C, 50 mM Tris-HCl pH 7.5, 100 mM NaCl; 28 µg peptide; UPLC peak area with MALDI-TOF MS; read-out: peptide remaining after carboxypeptidase A.
The next data set relates to Vero cell line. Briefly: In vitro cytotoxicity (MTT), Vero cells. It counts as cell-based. To be noted: concentrations up to 100 µM, 24 hr.

As a reminder, the fraction remaining is the share of the starting amount still present when the sample was taken. Take `CC[C@H](C)[C@@H]1NC(=O)[C@@H]2CSSC[C@H](NC(=O)CNC(=O)[C@@H](NC(=O)[C@H](CCC(=O)O)NC(=O)[C@@H](N)Cc3ccc(O)cc3)[C@@H](C)O)C(=O)N[C@@H](CCCCN)C(=O)N[C@@H](CCCNC(=N)N)C(=O)N[C@H]3CSSC[C@@H](C(=O)O)NC(=O)[C@H](CSSC[C@H](NC3=O)C(=O)N[C@@H](Cc3ccc(O)cc3)C(=O)N[C@@H](CC(C)C)C(=O)N[C@@H](CC(=O)O)C(=O)N[C@@H](CCC(=O)O)C(=O)N[C@@H](Cc3ccc(O)cc3)C(=O)NCC(=O)N2)NC(=O)[C@H](CCCNC(=N)N)NC1=O` [β-gB1] (H-YETGCKRCCYLDEYGCIRCC-OH; disulfide 5-16, 8-20, 9-19): the amount remaining at 6 h in data set [1] and in data set [3] was greater than 90% each time. In data set [2], the hemolytic effect result is given as “no hemolytic effect”. In addition, the “cytotoxic effect, BHK cells” value in the data set with BHK cell line was “nontoxic”. In the data set on Vero cell line, the “cytotoxic effect, Vero cells” value is “nontoxic”.

The values are drawn from publication PMC5522442, “β-Ginkgotides: Hyperdisulfide-constrained peptides from Ginkgo biloba” (Scientific Reports, 2017).
